Data as given in patent publication US20030157084A1, “Methods for preparing purified prostaglandin E synthase” (priority 2001, published 2003).
Where two headings read alike, the source gives them in different places.

Columns and labels:
[1] = molecular target: T1, purified His6-hPGES (Homo sapiens, UniProt O14684); test: PGES activity assay: glutathione dependent conversion of PGH2 to PGE2 by purified His6-hPGES; format: biochemical; design: made in house; host or cells: E. coli BL21(DE3) with pLysSL; conditions: sulfhydryl compound in place of GSH
T1 sequence (O14684 1-152): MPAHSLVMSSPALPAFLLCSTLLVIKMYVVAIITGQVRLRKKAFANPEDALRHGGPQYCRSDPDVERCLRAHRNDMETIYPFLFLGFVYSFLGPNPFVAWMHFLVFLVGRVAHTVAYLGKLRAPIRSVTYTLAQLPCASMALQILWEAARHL

[2] = molecular target: T1, purified His6-hPGES; test: Reduction of 15-hydroperoxy-PGE2 (peroxidase activity) by purified his6-hPGES; format: biochemical; design: made in house; host or cells: E. coli BL21(DE3) with pLysSL; conditions: 37 ° C., 0.1 mg/ml enzyme, 0.16 mM 15 hydroperoxy-PGE2
Description: This is presented in a typical chromatogram (FIG. 12B) as compared to the buffer control (FIG. 12C) after 30 seconds of incubation.

[3] = molecular target: T1, purified His6-hPGES; test: PGES activity assay: glutathione dependent conversion of PGH2 to PGE2 by purified His6-hPGES; format: biochemical; design: made in house; host or cells: E. coli BL21(DE3) with pLysSL; conditions: for Specific activity: at Vmax
Description: PGE synthase activity of the purified polypeptide, i.e., the ability to catalyze the conversion of a substrate of PGES into a 9-keto, 11-alpha-hydroxy form, e.g., PGH2 into PGE2 can be determined as follows. […] The polypeptide suspected of having PGES activity is incubated in a buffer, e.g., a sodium phosphate buffer in the presence of about 1 to 5 mM, preferably, 2.5 mM glutathione (GSH). The reaction is started by the addition of PGH2 at about 5 to 20 μM, and preferably 10 uM, and the reaction mixture is then incubated either at 37° C., at room temperature, or preferably, at 0° C., for about one to ten minutes, and preferably, for about one minute. The reaction can be terminated by the addition of a solution reducing the pH to about 3 or 3.2. This can be achieved by the addition of acetonitrile/HCl (as described in Jakobsson et al. (1999) PNAS 96:7220) or by the addition of FeCl2, citric acid, and/or 11-beta PGE2, as described in the Examples. The formation of PGF2 alpha, PGE2 and PGD2 can be determined by reverse-phase high pressure liquid chromatograph (HPLC) and UV detection at 195 nm. For subjecting the proteins to HPLC, the reaction mixtures can be subjected to solid phase extraction, e.g., using C18 Chomabond columns; the samples eluted with acetone, dried and dissolved in acetonitrile. The samples are then ready for HPLC. More details of these methods are provided in the Examples, as well as in Jakobssen et al., supra, and in published PCT application No. WO 00/28022 by Jakobsson et al.
(§1) PGES activity was assayed in 50 mM sodium phosphate buffer, pH 7.4, in the presence of 2.5 mM reduced glutathione (GSH; obtained from Sigma Chemical Co. (St. Louis, Mo.) and either zero; 0.2; 0.4 or 0.6 mg/ml of purified hPGES. The reaction was started by the addition of 10 μM PGH2, and the samples were incubated for 1 minute at 0° C. until terminated by 20 mM FeCl2, 40 mM citric acid and 2.1 μM 11-β. PGE2, lowering the pH to 3. PGH2 was prepared by brief incubation of arachidonic acid with suspensions of the microsomal fraction of homogenate of the sheep vesicular gland essentially as described in Hamberg et al. (1974) PNAS 71:345 or Hecker et al. (1987) Biochem. Pharmacol. 36:851. L-tryptophan (5 mM) was used as electron donor. Purification was accomplished by straight-phase HPLC using a solvent system of 2.5% 2-propanol-hexane containing 0.002% acetic acid. Solid phase extraction using C18 Chromabond columns was performed immediately. The samples were eluted with acetone, dried and dissolved in acetonitrile (⅓ by vol. in H2O) and the formation of PGE2 was analyzed by reverse-phase HPLC on a C18 (3.9×150 mm, 4 μM particle size) column and UV detection at 195 nm.
(§2) The remaining protein was divided in two parts, one was stored at 4° C. for 5 days, and one was frozen and stored at −20° C. for the same time. The PGES activity in the three samples was compared with that in a membrane fraction without solubilization. PGES activity was determined, as described above, for various amounts of protein. The samples were incubated for 1 min on ice or at 37° C. before stopping the reaction. The activity of the purified proteins was compared with the activity in BL21(DE3) membrane fraction without solubilization.
(§3) All points were made in triplicate. The Michaelis-Menten constants KM and Vmax (maximum velocity) were derived by hyperbolic regression with the computer program GraphPad Prism software 3.0 or 3.02 (GraphPad Software, Inc., San Diego, Calif.).

[4] = molecular target: T1, purified His6-hPGES; test: Glutathione transferase (GST) activity of purified His6-hPGES with CDNB; format: biochemical; design: made in house; host or cells: E. coli BL21(DE3) with pLysSL; conditions: pre-incubation with 5 mM N-ethylmaleimid in the absence of GSH for 1 minute
Description: Glutathione transferase (GST) activity (glutathione conjugation) was assayed with the classical model substrate for GSTs, p-chloro-2,4-dinitrobenzene (CDNB). […] Formation of product was detected at 340 nm (molar absorption coefficient for the product, GS-DNB, is 9.6 mM^−1 cm^−1).

[5] = molecular target: T1, purified His6-hPGES; test: Isomerization of PGG2 into 15-hydroperoxy-PGE2 by purified His6-hPGES; format: biochemical; design: made in house; host or cells: E. coli BL21(DE3) with pLysSL
Description: PGG2 was prepared similarly to PGE2 (described above), omitting the L-tryptophan. The reaction was terminated by lowering the pH to 3 by adding 6 μl HCl (1M). Then, 45 μl acetonitrile was added and centrifugation was performed at 14,000 g, for 1 minute to remove the protein. […] In order to determine the formation of PGE2 and 15-Hydroperoxy PGE2, an aliquot (100 μl) was analyzed by RP-HPLC, combined with UV detection at 195 nm. The products were quantified based on the peak areas from known amounts of injected prostaglandins.

[6] = system: A549 cells; test: Induction of PGE synthase and cyclooxygenase-2 in A549 cells; format: cell-based; conditions: IL-1β 1 ng/ml
Description: Microsomal fractions of A549 cells cultured with or without IL-1 β 1 ng/ml) for 0, 12, 24, 36 or 72 hours were subjected to SDS-PAGE and Western blot analysis. As positive control, the membrane fraction from bacteria expressing human PGE synthase was included. In all lanes of the gel, 10 μg of total protein was analyzed, except for the human PGE synthase where 2 μg was loaded. The Western blot was then incubated with antipeptide antiserum against PGE synthase. The blot was then stripped and incubated with antiserum against COX-2.
In order to study the possible correlation between the result from the Western blot and PGE synthase activity, the corresponding microsomes were incubated in the presence of PGH2 and reduced glutathione as described above. Briefly, microsomes (0.03 mg/ml) were incubated with PGH2 (11 μM) for 30 seconds at 0° C., followed by extraction and analysis by RP-HPLC. […] In addition, no corresponding activity was detected in the cytosolic fractions.

[7] = molecular target: T1, purified His6-hPGES; conditions: 37 ° C., 0.05 mg/ml enzyme, 1 mM GSH, 0.5 mM cumene hydroperoxide
[8] = Specific activity and kinetic properties of purified His6-hPGES for conversion of PGH2 to PGE2; format: biochemical; conditions: for Specific activity of the purified His6-hPGES: glutathione dependent conversion of PGH2 to PGE2
Description: as §1, §2, §3

[9] = format: physicochemical
Description: Membrane fractions were solubilized in 50 mM sodium phosphate buffer, pH 8.0, 150 mM NaCl, 4% Triton X-100, 10% glycerol and 1 mM GSH and stored at 4° C. Samples were assayed for PGES activity as described above after 0, 3, 6, 24 and 240 h (10 days) at 4° C.
as §2

[10] = 37° C., steady state, KM values apparent, read-out: KM

Molecule: O[C@H](CS)[C@H](O)CS (racemic) [dithiothreitol]
- PGES activity when GSH was substituted by other sulfhydryl compounds [1]: no PGES-activity could be detected

Molecule: OCCS [2-mercaptoethanol]
- PGES activity when GSH was substituted by other sulfhydryl compounds [1]: no PGES-activity could be detected

Molecule: CCCCC[C@@H](/C=C/[C@H]1[C@H](O)CC(=O)[C@@H]1C/C=C\CCCC(=O)O)OO [15-hydroperoxy-PGE2, 15-Hydroperoxy PGE2]
- Specific activity (reduction of 15-hydroperoxy-PGE2) [2]: 0.043 ± 0.019 µmol/min/mg
- Specific activity (reduction of 15-hydroperoxy-PGE2) ([2]; listed as 15-HP PGE2): no peroxidase activity towards this compound was detected

Molecule: N[C@@H](CCC(=O)N[C@@H](CS)C(=O)NCC(=O)O)C(=O)O [GSH, reduced glutathione]
- kcat ([3]; 37° C., steady state): 21 ± 1 s⁻¹
- Km [3, 10]: 710 ± 200 µM

Molecule: CC(=O)N[C@@H](CS)C(=O)O [N-acetylcysteine]
- PGES activity when GSH was substituted by other sulfhydryl compounds [1]: no PGES-activity could be detected

Molecule: CCN1C(=O)C=CC1=O [N-ethylmaleimide]
- Reduction of PGES activity ([3]; pre-incubation with 5 mM N-ethylmaleimide in the absence of GSH for 1 minute): ~100%
- Reduction of GST enzyme activity [4]: 50%

Molecule: CCCCC[C@@H](/C=C/[C@@H]1[C@@H](C/C=C\CCCC(=O)O)[C@@H]2C[C@H]1OO2)OO [PGG2]
- kcat ([5]; 37° C., steady state, PGG2 as substrate): 75 ± 4 s⁻¹
- Km ([5]; 37° C., steady state, PGG2 as substrate, apparent): 160 ± 30 µM
- Specific activity ([5]; 37 ° C., substrate PGG2, highest measured specific activity): 250 ± 15 µmol/min/mg

Molecule: CCCCC[C@H](O)/C=C/[C@@H]1[C@@H](C/C=C\CCCC(=O)O)[C@@H]2C[C@H]1OO2 [PGH2, Prostaglandin endoperoxide H2]
- Vmax ([3]; 0° C., 1 μg/ml purified PGES, 2.5 mM GSH, varying PGH2): 0.25 ± 0.013 µM/s
- Km ([3]; 0° C., 1 μg/ml purified PGES, 2.5 mM GSH, varying PGH2, read-out: Km for PGH2): 50 ± 8.9 µM
- Vmax ([3]; 37° C., 1 μg/ml purified PGES, 2.5 mM GSH, varying PGH2): 1.39 ± 0.16 µM/s
- Km ([3]; 37° C., 1 μg/ml purified PGES, 2.5 mM GSH, varying PGH2, read-out: Km for PGH2): 163 ± 42 µM
- kcat ([3]; 37° C., steady state): 50 ± 6 s⁻¹
- Km [3, 10]: 160 µM
- Specific activity ([3]; substrate PGH2, 0 ° C.): 15 µmol/min/mg
- Specific activity ([3]; substrate PGH2, 37 ° C.): 170 ± 20 µmol/min/mg

Molecule: IL-1β: proinflammatory cytokine interleukin-1β, added to A549 cells at 1 ng/ml
- COX-2 and PGE synthase protein expression (Western blot) ([6]; microsomal fractions, 0-72 hours): tandem upregulation of COX-2 and PGE synthase proteins
- PGE synthase activity in microsomes ([6]; up to 72 hours, microsomes 0.03 mg/ml, PGH2 11 μM, 30 seconds at 0° C.): increase over time

Molecule: cumene hydroperoxide
- Specific activity (GSH-dependent peroxidase) [7]: 0.17 ± 0.02 µmol/min/mg
- Specific activity (GSH-dependent peroxidase) ([7]; listed as cumene hydroperoxide): 0.17 µmol/min/mg

B1: His6-hPGES: full length human PGES fused at its N-terminus to six histidine residues (SEQ ID NO: 4), expressed in E. coli (protein)
chain: MHHHHHHMPAHSLVMSSPALPAFLLCSTLLVIKMYVVAIITGQVRLRKKAFANPEDALRHGGPQYCRSDPDVERCLRAHRNDMETIYPFLFLGFVYSFLGPNPFVAWMHFLVFLVGRVAHTVAYLGKLRAPIRSVTYTLAQLPCASMALQILWEAARHL
- Specific activity of the purified His6-hPGES ([8]; 0° C.): 15 µmol/min/mg
- Specific activity of the purified His6-hPGES ([8]; 37° C.): 167 µmol/min/mg
- Km ([8]; Human, recombinant): 163 µM
- Spec. Act. ([8]; Human, recombinant): 167 µmol/min/mg
- kcat ([8]; Human, recombinant): 50 s⁻¹
- Original activity remaining ([9]; 816 h): about 50%
- PGES activity in BL21 (DE3) membranes ([9]; in the absence of glycerol and GSH): rapidly declines within a period of 24 h
- PGES activity after heating ([9]; purified enzyme heated at 100° C. for 10 minutes): no PGES-activity could be detected
- Activity compared to the freshly prepared enzyme ([9]; purified enzyme, five days of storage at 4° C.): unchanged
- Loss of activity on storage ([9]; purified enzyme, up to at least two months at −20° C.): does not seem to result in any loss of activity
